Results reported in publication PMC5819394 (Proceedings of the National Academy of Sciences of the …, 2018).
Like-named read-outs stand apart in the source and are kept apart here.

Tested on: GenL
Type: biochemical, Micromonospora echinospora

Structure (SMILES)	Km [µM]	Km (SAM as methyl donor, integrated Michaelis-Menten fit) [µM]
CN[C@@H]1[C@@H](O)[C@@H](O[C@@H]2[C@@H](O)[C@H](O[C@H]3O[C@H](CN)CC[C@H]3N)[C@@H](N)C[C@H]2N)OC[C@]1(C)O [C1a]	347 ± 86	
CN[C@@H]1[C@@H](O)[C@@H](O[C@@H]2[C@@H](O)[C@H](O[C@H]3O[C@H]([C@@H](C)N)CC[C@H]3N)[C@@H](N)C[C@H]2N)OC[C@]1(C)O [C2]		77.8 ± 8
